Laboratory results as given in US20260308158A1, “TARGETING RNAS ASSOCIATED WITH TAUOPATHIES WITH SMALL MOLECULES” (University of Florida Research Foundation, Incorporated, priority 2023, published 2026).

What was measured:
[1] = test system: dually labeled DDPAC MAPT SRE RNA / U1 snRNA mimic; experiment: U1 snRNA mimic FRET-based quenching assay; type: biochemical
Protocol: U1 snRNA Mimic Quenching Assay. A 200 nM aliquot of dually labeled model of the DDPAC RNA (5′-FAM-[…]-BHQ-1-3′ (SEQ ID NO: 5); where FAM is 5 (6)-Carboxyfluorescein and BHQ-1 is black hole quencher) was folded in 1× Assay Buffer as described in Fluorescent Binding Affinity Measurements. Compound of interest at the indicated concentration was added, and the samples were incubated at room temperature in the dark for 15 min. A U1 snRNA mimic with sequence 5′-[…]-3′ (SEQ ID NO: 6) was then added to the samples to a final concentration of 20 μM. The fluorescence intensity of FAM was measured as a function of time for 1 h using a […] plate reader, with excitation and emission wavelengths of 485 and 525 nm, respectively.

[2] = type: physicochemical; details: not tested for this reason
[3] = test system: 4R and 3R tau protein in LAN5 cells; experiment: 4R/3R tau protein by Western blotting in LAN5 cells; type: cell-based; details: LA-N-5; 2 at 1.5 μM, LAN5, 48 h; read-out: reduction of 4R/3R protein ratio
Protocol: Western Blotting. LAN5 cells were seeded in 6-well plates at 0.6×10^6 cells per well, treated with compound and incubated for 48 h. After removing the growth medium, the cells were washed with 1×DPBS and harvested by trypsinization. Total protein was extracted with Mammalian Protein Extraction Reagent (M-PER, Thermo Scientific) per the manufacturer's protocol. Protein concentrations were determined using a Pierce Micro BCA Protein Assay Kit per the manufacturer's recommended protocol. Approximately 20 μg of total protein from each biological sample was separated on a sodium dodecyl sulfate (SDS)-polyacrylamide gel (5% (w/v) polyacrylamide stacking layer; 12% (w/v) polyacrylamide separating layer), followed by transferring to a polyvinylidene fluoride (PVDF; 0.45 μm) membrane. […] After three more washes with 1×TBST for 15 min each, 4R, 3R tau protein, or B-actin were detected using SuperSignal West Pico Chemiluminescent Substrate (Pierce Biotechnology).
After imaging, the membrane was stripped with 1× Stripping Buffer (200 mM glycine with 0.1% SDS, pH 2.2) for 0.5 h at room temperature, and β-actin levels were detected as described above, except using a β-actin primary antibody (Cell Signaling Technology, 4970S; 1:5000 dilution). ImageJ software was used for the quantification of the protein bands.

[4] = test system: MAPT exon 10 splicing in LAN5 cells; experiment: 4R/3R endogenous MAPT mRNA by RT-qPCR in LAN5 neuroblastoma cells; type: cell-based
Protocol: RNA Isolation and Real-Time Quantitative PCR (RT-qPCR). HeLa cells were treated as described in the Luciferase Reporter assay to Study Exon 10 Alternative Splicing. LAN5 cells were seeded in 12-well plates at 0.2×10^6 cells per well, treated with compound or ASO, and incubated for 48 h. Compound stocks prepared in DMSO and ASO stocks prepared in water were diluted in growth medium and added to cells. Total RNA was extracted from cells and analyzed via RT-qPCR to determine levels of 3R and 4R tau mRNA. In brief, the cells were washed with 1×DPBS and then lysed in the well using 300 μL of Lysis Buffer provided in a Quick-RNA MiniPrep kit (Zymo Research), which was used to extract total RNA per the manufacturer's protocol including the on-column DNase I digestion. The concentration of total RNA was measured by NanoDrop 2000 (Thermo Fisher Scientific). Only samples with OD260/OD280>1.8 were carried forward for analysis. Reverse transcription (RT) was carried out on 200 ng of total RNA using a qScript cDNA synthesis kit (QuantaBio) in a total volume of 10 μL according to the manufacturer's protocol. An Applied Biosystems QS5 384-well PCR system was used to complete qPCR reactions with Power SYBR Green Master Mix (Life Technologies), 600 nM each primer (Table S3), 20 ng of cDNA (1 μL of the RT reaction), in a total volume of 33 μL. Technical triplicates (10 μL each) were aliquoted into 384-well qPCR plates (Applied biosystems, 4483285). Subsequent qPCR analysis was performed using an Applied Biosystems QS5 384-well PCR system (software v.1.3.0). 4R/3R ratio were analyzed using ΔΔCt method using Equation 2: […]
where ΔCt 4R or ΔCt 3R is the difference between the Ct values for the 4R or 3R MAPT mRNA and a housekeeping gene (18S rRNA) in total RNA from cells.

[5] = target: DDPAC I17T mutant RNA; experiment: Fluorescent binding affinity, DDPAC I17T mutant RNA
Protocol: Fluorescent Binding Affinity Measurements. Binding assays were completed as previously described.^30 Briefly, the RNA of interest was folded in 1× Assay Buffer-1 (AB1: 8 mM Na2HPO4, pH 7.0, 185 mM NaCl, and 1 mM EDTA) by heating at 95° C. for 30 s followed by slowly cooling to room temperature. Bovine serum albumin (BSA) was then added to a final concentration of 40 μg/mL to afford 1× Assay Buffer-2 (AB2: 8 mM Na2HPO4, pH 7.0, 185 mM NaCl, 1 mM EDTA, and 40 μg/mL BSA). The RNA solution was serial diluted with 1×AB2. Then, compound of interest was added to the RNA solutions to a final concentration of 0.5 μM. […] Fluorescence intensity was measured using a Tecan Plate Reader (Gain: 100, Integration time: 40 μs). […] The change in fluorescence of the small molecule was calculated by its comparison to samples lacking RNA. Binding affinity was calculated using Equation 1, as previously described:^30
where I and I0 are the measured fluorescence intensity of the compound with or without RNA, respectively, Δε is the difference between the fluorescence intensity with the infinite concentration of RNA and the fluorescence intensity without RNA, [SM]0 and [RNA]0 are the concentrations of the small molecule (SM) and RNA, respectively, and Kd is the dissociation constant.

With `COc1cc(N)ncc1CCCN(C)CCCn1cnc2c3ccccc3n(C)c2c1=O` [Compound 2, 3-(3-((3-(6-amino-4-methoxypyridin-3-yl)propyl)(methyl)amino)propyl)-5-methyl-3,5-dihydro-4H-pyrimido[5,4-b]indol-4-one] the “more potent than 1 in multiple biochemical assays” value ([1]; 2 vs 1, multiple biochemical assays) was “at least 6 fold”, the “rate of increase of FAM signal (unfolding by U1 snRNA mimic)” value ([1]; compound 10 μM, vehicle 0.49 min-1) was 0.37 min⁻¹ and the “lower IC50 compared with 1” value ([1]; end-point FRET assay (FIG. 15C), 2 vs 1) was “around 5 fold”. For the same molecule, the IC50 ([1]; end-point measurement (5 min), read-out: IC50, reduction in FAM fluorescence (U1 snRNA mimic binding)) was 900 ± 200 nM, the “solubility at 200 μM” value [2] was “insolubility” and the inhibition at 1.5 µM [3] was 54 ± 9%. The inhibition at 1.5 µM ([4]; LA-N-5, 2 at 1.5 μM, LAN5, 48 h, RT-qPCR, read-out: reduction of 4R/3R ratio of MAPT RNA) was 56 ± 4%, the “PSI10 (PSI of MAPT exon 10) vs vehicle” value ([4]; LAN5 cells) was “downregulated” and the “Kd (estimated; no saturable binding)” value [5] was > 50000 nM.
